One assay relates to Rhizoctonia solani. The assay can be described thus: Microtest (micro titer plate): activity against Rhizoctonia solani. In kind it is cell-based. Conditions: 7 days after inoculation. From the text: (§1) The active compounds were formulated separately as a stock solution having a concentration of 10000 ppm in dimethyl sulfoxide.
(§2) Epoxiconazole was used as commercial finished formulation and diluted with water to the stated concentration of the active compound.
B) 1. Activity against Rhizoctonia solani
(§3) The stock solutions were mixed according to the ratio, pipetted onto a micro titer plate (MTP) and diluted with water to the stated concentrations. A spore suspension of Septoria tritici in an aqueous biomalt solution was then added. The plates were placed in a water vapor-saturated chamber at a temperature of 18° C. Using an absorption photometer, the MTPs were measured at 405 nm 7 days after the inoculation.
(§4) The measured parameters were compared to the growth of the active compound-free control variant (100%) and the fungus-free and active compound-free blank value to determine the relative growth in % of the pathogens in the respective active compounds. These percentages were converted into efficacies. An efficacy of 0 means that the growth level of the pathogens corresponds to that of the untreated control; an efficacy of 100 means that the pathogens were not growing.
(§5) The expected efficacies of active compound mixtures were determined using Colby's formula [R. S. Colby, “Calculating synergistic and antagonistic responses of herbicide combinations”, Weeds 15, 20-22 (1967)] and compared with the observed efficacies.

In another assay the test system is Septoria tritici. The assay can be described thus: Microtest (micro titer plate): activity against Septoria tritici. Conditions: 7 days after inoculation. In kind it is cell-based.
From the text: as §1, §2
B) 2. Activity against Septoria tritici
as §3, §4, §5

The subject of a further assay is Puccinia recondita. The assay can be described thus: Greenhouse: preventative control of brown rust on wheat. In kind it is in vivo. Conditions: 0.25 ppm, wheat seedlings sprayed 1 day before inoculation, % of untreated control. As to the method: The spray solutions were prepared in several steps:
The stock solution were prepared: a mixture of acetone and/or dimethylsulfoxide and the wetting agent/emulsifier Wettol®, which is based on ethoxylated alkylphenoles, in a relation (volume) solvent-emulsifier of 99 to 1 was added to 25 mg of the compound to give a total of 10 ml.
Water was then added to total volume of 100 ml.
This stock solution was diluted with the described solvent-emulsifier-water mixture to the given concentration.
The product epoxiconazole was used as commercial finished formulation and diluted with water to the stated concentration of the active compound.
Preventative Control of Brown Rust on Wheat Caused by Puccinia recondite
The first two developed leaves of pot-grown wheat seedling were sprayed to run-off with an aqueous suspension, containing the concentration of active ingredient or their mixture as described below. The next day the plants were inoculated with spores of Puccinia recondita. To ensure the success the artificial inoculation, the plants were transferred to a humid chamber without light and a relative humidity of 95 to 99% and 20 to 22 °C. for 24 h. Then the trial plants were cultivated for 6 days in a greenhouse chamber at 22-26° C. and a relative humidity between 65 and 70%. The extent of fungal attack on the leaves was visually assessed as % diseased leaf area. […]
as §5
The visually determined percentages of infected leaf areas were converted into efficacies in % of the untreated control.
The efficacy (E) is calculated as follows using Abbot's formula: […]
The expected efficacies of active compound combinations were determined using Colby's formula (Colby, S. R. “Calculating synergistic and antagonistic responses of herbicide combinations”, Weeds, 15, pp. 20-22, 1967) and compared with the observed efficacies. […]

On to `Fc1ccc([C@]2(Cn3cncn3)O[C@H]2c2ccccc2Cl)cc1` (racemic) [Epoxiconazole, epoxiconazole], for which, in the assay with Rhizoctonia solani (0.004 ppm), the Observed efficacy was 0%.
For the compound `OC(Cc1ccccc1Cl)(Cn1nc[nH]c1=S)C1(Cl)CC1` (stereo not drawn) [Prothioconazole], the Observed efficacy with Septoria tritici (0.016 ppm) amounted to 5%; with Puccinia recondita it was 0%; with Rhizoctonia solani (0.016 ppm), 11%.
Consider `CC1(C)CCC(Cc2ccc(Cl)cc2)C1(O)Cn1cncn1` (stereo not drawn) [Metconazole, metconazole], for which the Observed efficacy in the assay on Septoria tritici (0.016 ppm) was determined as 19%; with Puccinia recondita, 33%; in the assay on Rhizoctonia solani (0.004 ppm) it was 26%; in the assay with Rhizoctonia solani (0.016 ppm), 62%.
As to `Cn1cc(C(=O)Nc2ccc(F)cc2-c2ccc(Cl)c(Cl)c2)c(C(F)F)n1` [Bixafen, N-(3′,4′-dichloro-5-fluorobiphenyl-2-yl)-3-(difluoromethyl)-1-methylpyrazole-4-carboxamide], the Observed efficacy with Puccinia recondita was 0%; with Rhizoctonia solani (0.001 ppm) it was 0%; in the assay with Rhizoctonia solani (0.004 ppm), 7%.
Take `Cc1nn(C)c(F)c1C(=O)Nc1ccccc1C(C)CC(C)C` (stereo not drawn) [Compound (II), N-[2-(1,3-dimethylbutyl)-phenyl]-1,3-dimethyl-5-fluor-1H-pyrazole-4-carboxamide]: the Observed efficacy in the assay with Septoria tritici (0.004 ppm) is recorded as 0%.

For the origin of these results see patent US20100331181A1, “Method for Protecting Cereals From Being Infected By Fungi” (BASF SE, priority 2008, published 2010).
